{"source": "paper PMC9468151", "about": "“Identification of a binding site on soluble RANKL that can be targeted to inhibit soluble RANK-RANKL interactions and treat osteoporosis” (Nature Communications, 2022)", "key": {"OVX rats": {"tested_on": "OVX rats", "assay": "Rat body weight and organ coefficients determination", "type": "in vivo", "details": "for body weight (fig. S7d): in g (unit assumed)", "experimental": "We dissected all rats after 12 weeks of treatment, then took the main organs like heart, liver, spleen, lung, kidney, and thymus. All the organs were removed the attached adipose and weighted with an electronic balance (Sartorius, Germany). Mice spleen and cervical lymph node were also taken and weighted. Organ index (mg/g) was calculated as the following formula: Organ coefficients=Organweight(mg)/Ratormousetotalweight(g)"}, "OVX mice": {"tested_on": "OVX mice", "assay": "Histological examination of femur (TRAP staining)", "type": "in vivo, mouse", "experimental": "The mice left femur was fixed in paraformaldehyde for 72 h, demineralized using 10% Ethylenediamine tetra-acetic acid (EDTA-2Na) for 3 weeks, and then dehydrated with ethanol, clarified with xylene, and embedded with paraffin. Paraffin embedded tissue was sectioned on a rotary microtome. The sectioned tissues were stained with TRAP."}, "[1]": {"target": "T1, binary-RANKL (L-RANKL, mRANKL mimic) (Rattus norvegicus, UniProt Q9ESE2, D175N)", "T1 construct": "(3) mRANKL (sRANKL-GSGS-sRANKL, rat 159-318 aa); His6-sumo (N); made in house; host or cells: Escherichia coli BL21 (DE3)", "T1 sequence (Q9ESE2 with tags, fused parts or gaps D175N)": "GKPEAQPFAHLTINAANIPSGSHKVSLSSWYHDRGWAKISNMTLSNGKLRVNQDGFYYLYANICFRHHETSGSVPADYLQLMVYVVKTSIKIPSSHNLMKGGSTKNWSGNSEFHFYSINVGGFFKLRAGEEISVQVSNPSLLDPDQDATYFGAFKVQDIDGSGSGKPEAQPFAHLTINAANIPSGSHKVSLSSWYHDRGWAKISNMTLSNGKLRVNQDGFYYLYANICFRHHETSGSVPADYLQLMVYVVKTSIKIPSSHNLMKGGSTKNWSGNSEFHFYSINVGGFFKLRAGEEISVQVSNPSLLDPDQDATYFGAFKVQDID", "assay": "Isothermal titration calorimetry (ITC) with binary-RANKL", "type": "binding", "details": "25 °C, PBS 0.8% DMSO; read-out: ITC KD with binary-RANKL (printed +mRANKL in Fig. 3a)", "experimental": "ITC titrations were performed on the MicroCal iTC200 system at 25 °C[55]. Working stocks of compound S3-15 were prepared in 100% DMSO at 50 mM and then diluted to 500 μM at PBS with final DMSO concentration at 0.8% (v/v). PBS with 0.8% DMSO was used as ITC buffer. Purified sRANKL or L-RANKL protein was buffer exchanged into same ITC buffer using a Millipore spin column. S3-15 at 500 μM was loaded into a syringe and protein was loaded into an isothermal calorimeter cell. During titration, S3-15 in the […] was injected (2 μL per injection, 25 injections in total, and 180 s between each injection) regularly from a rotating syringe into protein solution in the isothermal calorimeter cell. The sample cell was stirred at 385 rpm. Reference cell power was set to 5 μcal/s. Control experiments were conducted under the same conditions using buffer solution instead of S3-15. Data were analyzed using a one-site binding model in Origin 7.1 software for ITC version 7.0 (MicroCal). The dissociation constant, KD, was calculated according to equation KD = 1/K. All other parameters, K ([…]), N (varying the stoichiometry), ΔH (enthalpy of the reaction), and ΔG ([…] of the reaction) were determined from the titration data."}, "sRANKL": {"target": "T2, sRANKL (Rattus norvegicus, UniProt Q9ESE2, D175N)", "T2 construct": "(1) sRANKL (rat 159-318 aa); His6-sumo (N, cleaved yes); made in house; host or cells: Escherichia coli BL21 (DE3)", "T2 sequence (Q9ESE2 159-318 D175N)": "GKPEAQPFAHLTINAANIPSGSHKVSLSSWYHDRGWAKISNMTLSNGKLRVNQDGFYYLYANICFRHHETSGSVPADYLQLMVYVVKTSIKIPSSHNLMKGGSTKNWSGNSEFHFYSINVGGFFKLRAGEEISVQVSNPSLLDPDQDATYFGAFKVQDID", "assay": "STD NMR binding assay with sRANKL", "details": "100 μM protein, 5 mM compound", "experimental": "For NMR studies, purified sRANKL or L-RANKL protein samples were buffer exchanged into PBS (Gbico, C10010500BT, pH7.4) using a Millipore spin column (1500 × g for 15 min at 4 °C, repeated six times, each time adding fresh PBS and discarding the flow-through). Protein concentration was determined using BCA method according to the procedure of Pierce^TM BCA Protein Assay Kit (Thermo Fisher Scientific). Compound S3-15 powder was dissolved in H2O as a concentration of 10 mM.\nProtein saturation transfer difference (STD) experiments were performed on Bruker Avance III 500 (500 MHz) spectrometer (Columbia University) at 300 K using triple-resonance cryogenic probes optimized for proton detection. All experiments were performed using an independent sample for each experimental measurement as a 500 μL sample in NMR tubes with 100 μM protein and […] S3-15 in final concentration. Uniformly, for STD assay all samples were contained 50 μL protein, 200 μL S3-15 (10 mM in H2O), and 250 μL D2O; for S3-15 two-dimensional spectra reference, samples were 50 μL PBS, 200 μL S3-15 (10 mM in H2O) and 250 μL D2O."}, "[2]": {"tested_on": "WT sRANKL or Q238A sRANKL induced osteoclast formation", "assay": "Rescue experiment: osteoclast formation induced by WT or Q238A sRANKL", "type": "cell-based, mouse", "experimental": "For the osteoclast formation induced by WT and Q238A sRANKL experiments, BMMs were seeded in 96-well plate in density of 6 × 10^3 cell/ well with α-MEM completed medium containing 10 ng/mL M-CSF for 24 h. Then the cells were treated with 0 μM, 0.3 μM, 3 μM and 10 μM and stimulated with 100 ng/mLWT sRANKL or Q238A sRANKL respectively. For the osteoclast formation induced by WT, W194A, and H226A sRANKL experiments, cells were stimulated with 100 ng/mL WT sRANKL combined W194A, H226A sRANKL in different concentrations (50 ng/mL, 200 ng/mL, and 400 ng/mL) with or without 10 μM S3-15. After 5 days, osteoclasts were formed, and applied TRAP-staining as described above. TRAP-positive multinucleated cells with > 3 nuclei were scored as osteoclasts."}, "[3]": {"tested_on": "NF-κB, MAPK and PI3K-AKT signaling", "assay": "Western blotting of RANKL-RANK signaling in RAW264.7 cells", "type": "cell-based, mouse", "details": "RAW264.7, 5 μM", "experimental": "The mRNA expression level of S3-15 was measured by RT–qPCR as primary described. Total cellular RNA sample was prepared using RNAiso Plus, followed by reverse transcription with PrimeScript™ MixRT Master Mix reverse transcriptase kit. Then quantitative real-time PCR assays were performed with TB Green™ premix EX Taq™ II kit on an Applied Biosystems. […] signaling inhibiting effect was determined by western blotting. RAW264.7 cells were treated with 5 μM S3-15 with or without sRANKL (100 ng/mL) for 5, 10, 30 and 60 min after starved for 1 h. Then the cells were washed with cold PBS and lysed by RIPA Lysis Buffer. Cell lysates were then processed for Western Blotting analyses. Primary antibody binding was detected using rat secondary antibodies (1:5000) coupled with enhanced chemiluminescence (ECL) reagents (Thermo Scientific) and visualized on Tanon 5200. Primers used for qPCR and antibodies used for western blotting were seen supplementary materials for details."}}, "note": "Where “and” joins values, the source holds several entries; their conditions need not be identical. Identical values can stand only once.", "data": [{"compound": "CC(=O)/C(=N\\Nc1ccccc1C(=O)O)C(=O)Nc1ccccn1", "note": "[S3-15]", "values": [{"measurement": "organ coefficient, Heart", "setting": "OVX rats; individual animals", "value": "2.652 and 2.903 and 2.602 and 2.757 and 2.485 and 2.813 and 2.658 and 2.708 and 2.583"}, {"measurement": "organ coefficient, Kidney", "setting": "OVX rats; individual animals", "value": "4.969 and 4.261 and 5.124 and 5.036 and 4.8723 and 5.304 and 5.021 and 5.76 and 4.3689"}, {"measurement": "organ coefficient, Liver", "setting": "OVX rats; individual animals", "value": "19.7988 and 22.7088 and 21.1699 and 21.9894 and 21.577 and 21.8338 and 22.6442 and 26.0414 and 24.0486"}, {"measurement": "organ coefficient, Lung", "setting": "OVX rats; individual animals", "value": "3.321 and 3.475 and 4.3001 and 4.037 and 3.68 and 3.867 and 3.796 and 3.612 and 2.629"}, {"measurement": "organ coefficient, Spleen", "setting": "OVX rats; individual animals", "value": "1.37 and 1.538 and 1.519 and 1.351 and 1.314 and 1.243 and 1.454 and 1.422 and 1.469"}, {"measurement": "organ coefficient, Thymus", "setting": "OVX rats; individual animals", "value": "0.5247 and 0.4616 and 0.2402 and 1.041 and 0.7463 and 1.3304 and 0.3322 and 0.6497 and 0.411"}, {"measurement": "organ coefficient, Uterus", "setting": "OVX rats; individual animals", "value": "0.5222 and 0.6316 and 3.058 and 1.43 and 0.2827 and 0.6792 and 0.9495 and 1.366 and 2.466"}, {"measurement": "body weight (fig. S7d)", "setting": "OVX rats; week 12, individual animals", "value": "538.3 and 392.8 and 372.2 and 391.4 and 440.6 and 486.3 and 462.8 and 403.8 and 390.8"}, {"measurement": "body weight (fig. S7d)", "setting": "OVX rats; week 16, individual animals", "value": "559.2 and 407.9 and 470.2 and 373.7 and 449.4 and 404.7 and 487.3 and 429.1 and 417.2"}, {"measurement": "body weight (fig. S7d)", "setting": "OVX rats; week 20, individual animals", "value": "573.2 and 404.5 and 481.5 and 392.5 and 442.6 and 406.7 and 502.6 and 448.2 and 400"}, {"measurement": "body weight (fig. S7d)", "setting": "OVX rats; week 24, individual animals", "value": "583.9 and 392.6 and 476.6 and 387.2 and 432.3 and 403.3 and 500.6 and 445.5 and 415.3"}, {"measurement": "numbers of osteoclast, histology", "setting": "OVX mice", "value": "significantly decreased the numbers of osteoclast"}, {"measurement": "Kd", "setting": "[1]", "value": 124, "unit": "µM"}, {"measurement": "STD-NMR binding to sRANKL", "setting": "sRANKL", "value": "binds to sRANKL"}, {"measurement": "osteoclastogenesis when incubated with Q238A sRANKL", "setting": "[2]; Q238A sRANKL", "value": "cannot block osteoclastogenesis"}, {"measurement": "Number of OCs", "setting": "[2]; Q238A sRANKL 100 ng/mL, S3-15 0.3 μM", "value": "268 and 278 and 265"}, {"measurement": "Number of OCs", "setting": "[2]; Q238A sRANKL 100 ng/mL, S3-15 3 μM", "value": "250 and 279 and 269"}, {"measurement": "Number of OCs", "setting": "[2]; Q238A sRANKL 100 ng/mL, S3-15 10 μM", "value": "265 and 279 and 270"}, {"measurement": "Number of OCs", "setting": "[2]; WT RANKL 100 ng/mL, S3-15 0.3 μM", "value": "142 and 135 and 149"}, {"measurement": "Number of OCs", "setting": "[2]; WT RANKL 100 ng/mL, S3-15 3 μM", "value": "35 and 57 and 40"}, {"measurement": "MAPK signaling (phosphorylation of ERK, JNK, p38)", "setting": "[3]", "value": "abrogated MAPK signaling"}, {"measurement": "PI3K-AKT signaling (phosphorylation of PI3K, AKT)", "setting": "[3]", "value": "reduced PI3K-AKT signaling"}, {"measurement": "RANKL-induced NF-κB signaling (phosphorylation of IKKα, IκBα, p65)", "setting": "[3]", "value": "suppresses RANKL-induced NF-κB signaling"}]}]}
